Measurements: publication doi:10.1101/2022.05.31.494145v5 (biorxiv, 2024)

Tests used:
CHIKV nsP1 = target: T1, CHIKV nsP1 (Chikungunya virus strain S27-African prototype, UniProt Q8JUX6); assay: tryptophan fluorescence quenching; assay type: binding
T1 sequence (Q8JUX6 1-535): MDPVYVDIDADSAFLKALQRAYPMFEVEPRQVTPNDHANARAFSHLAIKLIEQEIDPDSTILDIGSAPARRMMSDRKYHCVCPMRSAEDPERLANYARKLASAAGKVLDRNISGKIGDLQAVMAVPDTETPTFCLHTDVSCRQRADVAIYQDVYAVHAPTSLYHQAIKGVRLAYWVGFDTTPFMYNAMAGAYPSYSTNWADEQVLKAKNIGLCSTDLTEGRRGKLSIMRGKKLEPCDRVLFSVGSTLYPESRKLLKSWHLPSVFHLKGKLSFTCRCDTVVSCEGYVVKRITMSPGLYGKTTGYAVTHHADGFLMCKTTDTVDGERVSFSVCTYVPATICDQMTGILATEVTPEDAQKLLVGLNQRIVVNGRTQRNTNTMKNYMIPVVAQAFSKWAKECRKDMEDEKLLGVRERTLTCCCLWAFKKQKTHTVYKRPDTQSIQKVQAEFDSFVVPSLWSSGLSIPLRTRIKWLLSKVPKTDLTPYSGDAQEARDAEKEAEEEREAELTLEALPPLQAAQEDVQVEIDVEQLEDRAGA

DENV 3 NS5 MTase = target: T2, DENV 3 NS5 MTase (dengue virus type 3, UniProt A9LID6); assay: tryptophan fluorescence quenching; assay type: binding
T2 sequence (A9LID6 2491-2755 limits assumed): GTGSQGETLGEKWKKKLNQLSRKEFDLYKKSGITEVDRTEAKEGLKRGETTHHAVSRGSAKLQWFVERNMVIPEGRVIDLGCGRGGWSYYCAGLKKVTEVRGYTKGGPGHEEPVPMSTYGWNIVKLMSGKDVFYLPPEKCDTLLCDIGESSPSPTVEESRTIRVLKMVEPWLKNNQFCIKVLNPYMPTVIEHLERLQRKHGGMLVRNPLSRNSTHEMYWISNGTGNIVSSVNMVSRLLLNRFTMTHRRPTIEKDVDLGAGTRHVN

Row | Structure (SMILES) | Kd (CHIKV nsP1) [µM] | Kd (DENV 3 NS5 MTase) [µM]
1 | O=C(/C=C/c1ccc(O)c(O)c1)OCCc1ccccc1 [CAPE, caffeic acid phenethyl ester] | 30.6 ± 5.33 | 37.9 ± 6.32
2 | O=c1c(O)c(-c2ccc(O)cc2)oc2c(O)c(O)cc(O)c12 [HC, herbacetin] | 6.52 ± 0.55 | 13.3 ± 2.69
3 | Nc1nc2c(ncn2[C@@H]2O[C@H](COP(=O)(O)OP(=O)(O)OP(=O)(O)O)[C@@H](O)[C@H]2O)c(=O)[nH]1 [GTP] | 169 ± 21.3 | 3.03 ± 1
4 | C[S+](CC[C@H](N)C(=O)O)C[C@H]1O[C@@H](n2cnc3c(N)ncnc32)[C@H](O)[C@@H]1O (some centres unmarked) [SAM] | 10.9 ± 5.15 | 6.67 ± 2.57
